From ChEMBL document CHEMBL1153039, “Allosteric modulators of the adenosine A1 receptor: synthesis and pharmacological evaluation of 4-substituted 2-amino-3-benzoylthiophenes” (J Med Chem, 2009) come the findings set out here.

Molecules are shown by their SMILES. Calls of active or inactive are those of the source. No cut-off for these calls is given here.

In experiment [1] the target is T1, Adenosine receptor A1 (Homo sapiens) (UniProt P30542).
T1 sequence (whole entry): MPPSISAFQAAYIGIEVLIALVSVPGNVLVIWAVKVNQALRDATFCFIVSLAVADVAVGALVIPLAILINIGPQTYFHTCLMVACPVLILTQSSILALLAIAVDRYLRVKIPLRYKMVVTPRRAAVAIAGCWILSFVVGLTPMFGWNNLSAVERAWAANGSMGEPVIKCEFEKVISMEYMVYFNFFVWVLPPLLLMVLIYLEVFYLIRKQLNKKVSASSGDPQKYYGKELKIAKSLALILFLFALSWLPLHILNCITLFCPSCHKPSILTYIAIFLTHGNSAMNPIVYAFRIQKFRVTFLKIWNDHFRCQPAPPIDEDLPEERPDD
Kind of experiment: Allosteric modulation of human adenosine A1 receptor transfected in CHO FlpIn cells assessed as orthosteric agonist R-PIA-mediated ERK1/2 phosphorylation at 10 uM pretreated 30 mins before R-PIA challenge measured after 1.5 hrs by fluorescence assay. It counts as functional, cell-based.

Experiment [2] has as its target T1, Adenosine receptor A1 (Homo sapiens). Kind of experiment: Allosteric modulation of human adenosine A1 receptor transfected in CHO FlpIn cells assessed as orthosteric agonist R-PIA-mediated ERK1/2 phosphorylation at 3 uM pretreated 30 mins before R-PIA challenge measured after 1.5 hrs by fluorescence assay. The experiment is classed as functional, cell-based.
Experiment [3] shares this target. Kind of experiment: Binding affinity to allosteric site of unoccupied human adenosine A1 receptor transfected in CHO FlpIn cells as potentiation of orthosteric agonist R-PIA-mediated [35S]GTPgammaS binding after 60 mins by liquid scintillation counting. The experiment is classed as functional, cell-based. In general terms: GTPγS resists hydrolysis and so accumulates on activated G proteins.

For experiment [4] the target is unchanged. The experiment can be described thus: Allosteric modulation of human adenosine A1 receptor transfected in CHO FlpIn cells assessed as orthosteric agonist R-PIA-mediated ERK1/2 phosphorylation at 0.1 to 3 uM pretreated 30 mins before R-PIA challenge measured after 1.5 hrs by fluorescence assay. It counts as functional, cell-based.
Experiment [5] has the same target. The experiment can be described thus: Binding affinity to allosteric site of unoccupied human adenosine A1 receptor transfected in CHO FlpIn cells assessed as potentiation of orthosteric agonist R-PIA-mediated ERK1/2 phosphorylation pretreated 30 mins before R-PIA challenge measured after 1.5 hrs by fluorescence assay. The experiment is classed as cell-based.
The target is the same in experiment [6]. The experiment can be described thus: […] at human adenosine A1 receptor transfected in CHO FlpIn cells assessed as potentiation of orthosteric agonist R-PIA-mediated [35S]GTPgammaS binding at 0.1 to 3 uM after 60 mins by liquid scintillation counting. The experiment is classed as functional, cell-based.

A word on the pKb: it is the negative decadic logarithm of the Kb, by convention in mol/L.

In the case of `Nc1scc(-c2ccccc2F)c1C(=O)c1ccccc1`, the Activity in experiment [1] was 68%; in experiment [2], 55%.

Turning to `Nc1scc(-c2cccc(C(F)(F)F)c2)c1C(=O)c1ccc(Cl)cc1`, the Activity in experiment [1] came out at 73%; in experiment [2] it was 64%.

For the compound `COc1cccc(-c2csc(N)c2C(=O)c2ccc(Cl)cc2)c1`, the values for the Activity in experiment [1] and in experiment [2] were 60% and 58%, respectively.

For `Nc1scc(-c2ccc(Cl)cc2)c1C(=O)c1ccccc1`, the Activity worked out at 51% in experiment [1] and 46% in experiment [2].

For the compound `Nc1scc(-c2ccc(Br)cc2)c1C(=O)c1ccc(Cl)cc1`, the figures for the Activity in experiment [1] and in experiment [2] were 46% and 45%, respectively.

Take `Nc1scc(-c2cccc(C(F)(F)F)c2)c1C(=O)c1ccccc1`: the Activity was 59% in experiment [1] and 83% in experiment [2]. The results for the pKb in experiment [3] and in experiment [5] were 5.96 and 6.37, respectively. The result in experiment [4] and in experiment [6] was Active.

As to `Nc1scc(-c2ccc(F)cc2)c1C(=O)c1ccccc1`, the Activity in experiment [1] was found to be 60%; in experiment [2], 51%.

`Nc1scc(-c2cccc(F)c2)c1C(=O)c1ccc(Cl)cc1`: the Activity in experiment [1] amounted to 90%; in experiment [2] it was 76%.

Take `Nc1scc(-c2cccc(Cl)c2)c1C(=O)c1ccccc1`: the results for the Activity in experiment [1] and in experiment [2] were 52% and 45%, respectively.

As for `COc1ccc(-c2csc(N)c2C(=O)c2ccc(Cl)cc2)cc1`, the Activity in experiment [1] worked out at 55%; in experiment [2] it was 51%.

Consider `Nc1scc(-c2cccc(Cl)c2)c1C(=O)c1ccc(Cl)cc1`, for which the Activity in experiment [1] came out at 75%; in experiment [2] it was 58%.

For `Nc1scc(-c2ccc(I)cc2)c1C(=O)c1ccc(Cl)cc1`, the Activity was 61% in experiment [1] and 54% in experiment [2].

With `Nc1scc(-c2cc(C(F)(F)F)cc(C(F)(F)F)c2)c1C(=O)c1ccccc1`, the figures for the Activity in experiment [1] and in experiment [2] were 93% and 83%, respectively. The values for the negative logarithm of the Kb (pKb) in experiment [3] and in experiment [5] were 5.82 and 5.22, respectively. Also, the result in experiment [4] and in experiment [6] was Active.

Take `Nc1scc(-c2ccc(Cl)cc2)c1C(=O)c1ccc(Cl)cc1`: the Activity in experiment [1] and in experiment [2] was 50% in each case.

With `Nc1scc(-c2cccc([N+](=O)[O-])c2)c1C(=O)c1ccccc1`, the Activity in experiment [1] stood at 50%; in experiment [2], 47%.

Take `Nc1scc(-c2cccc(Br)c2)c1C(=O)c1ccccc1`: the values for the Activity in experiment [1] and in experiment [2] were 76% and 67%, respectively.

As for `Nc1scc(-c2ccc([N+](=O)[O-])cc2)c1C(=O)c1ccc(Cl)cc1`, the Activity in experiment [1] was 52%; in experiment [2], 47%.

With `Nc1scc(-c2cccc(Br)c2)c1C(=O)c1ccc(Cl)cc1`, the Activity in experiment [1] was determined as 69%; in experiment [2] it was 62%.

`Nc1scc(-c2ccc([N+](=O)[O-])cc2)c1C(=O)c1ccccc1`: the Activity is 47% in experiment [1] and 50% in experiment [2].

In the case of `COc1ccc(-c2csc(N)c2C(=O)c2ccccc2)cc1`, the Activity in experiment [1] and in experiment [2] was 52% each time.

Turning to `Nc1scc(-c2ccc(Br)cc2)c1C(=O)c1ccccc1`, the Activity in experiment [1] is 49%; in experiment [2], 46%.

On to `Nc1scc(-c2ccc(I)cc2)c1C(=O)c1ccccc1`, for which the Activity in experiment [1] came out at 50%; in experiment [2], 51%.

Consider `COc1cccc(-c2csc(N)c2C(=O)c2ccccc2)c1`, for which the Activity came to 34% in experiment [1] and 41% in experiment [2].

Consider `Nc1scc(-c2cc(C(F)(F)F)cc(C(F)(F)F)c2)c1C(=O)c1ccc(Cl)cc1`, for which the Activity in experiment [1] came to 74%; in experiment [2], 69%.

With `Nc1scc(-c2cccc([N+](=O)[O-])c2)c1C(=O)c1ccc(Cl)cc1`, the Activity was determined as 42% in experiment [1] and 53% in experiment [2].

In the case of `Nc1scc(-c2ccccc2)c1C(=O)c1ccc(Cl)cc1`, the Activity turned out to be 64% in experiment [1] and 51% in experiment [2].

With `Nc1scc(-c2ccc3ccccc3c2)c1C(=O)c1ccc(Cl)cc1`, the Activity stood at 67% in experiment [1] and 54% in experiment [2].

Consider `Nc1scc(-c2ccc3ccccc3c2)c1C(=O)c1ccccc1`, for which the values for the Activity in experiment [1] and in experiment [2] were 73% and 55%, respectively.

In the case of `Nc1scc(-c2ccc(F)cc2)c1C(=O)c1ccc(Cl)cc1`, the Activity in experiment [1] was 61%; in experiment [2] it was 62%.

As to `Nc1scc(-c2cccc(F)c2)c1C(=O)c1ccccc1`, the figures for the Activity in experiment [1] and in experiment [2] were 52% and 51%, respectively.

`Nc1scc(-c2ccccc2F)c1C(=O)c1ccc(Cl)cc1`: the Activity in experiment [1] came out at 87%; in experiment [2], 70%.

For the compound `Nc1scc(-c2ccccc2)c1C(=O)c1ccccc1`, the Activity in experiment [1] came out at 48%; in experiment [2], 49%.
